In patent US12156867B2, “Melanocortin agents for use in the therapeutic treatment of melanoma, tumors of the gastrointestinal tract, and thyroid carcinoma” (UNIVERSITA' DI PISA, priority 2018, dated 2024):

Assays:
Format in all cases: cell-based
[1] = test system: HT-29 human carcinoma cell line of the gastrointestinal tract; assay: In vitro cytotoxicity / antiproliferative effect, cell count after 72 h; settings: HT-29 cells
From the text: (§1) The present study used the human melanoma cell lines A-2058 BRAF-mutant (CRL-11147), obtained from ATCC (American Type Culture Collection, Manassas, USA), and WM-266-4 (91061233), obtained from ECACC (European Collection of Authenticated Cell Cultures). In addition, carcinoma cells of the gastrointestinal tract (Caco-2, HT-29) and thyroid carcinoma cells (8305C) were used. The compound ML00253764 was purchased from Tocris Bioscience (Bristol, UK), and solubilized in sterile water. The compound Vemurafenib was obtained from Selleckchem (Munich, Germany) and dissolved in dimethyl sulfoxide (DMSO). For the in vitro studies, both drugs were dissolved in a stock solution at 10 mM concentration. In the same experiment, the concentration of DMSO in the medium of the controls was the same used to obtain the maximum concentration of Vemurafenib in the cell culture media. The biotinylated anti-rabbit IgG antibody and the avidin-biotin complex were purchased from Vector Laboratories (Burlingame, CA, USA), while TO-PRO-3 iodide was from Molecular Probes (Eugene, OR, USA). Anti-MC4R antibody (ab75506) and goat anti-rabbit IgG antibody (Alexa Fluor 488) were purchased from Abcam (Cambridge, MA, USA).
(§2) The two tumor cell lines WM-266-4 and A-2058 were grown in cell culture flasks as monolayers and maintained in EMEM and DMEM, respectively, supplemented with 10% fetal bovine serum (FBS), penicillin (50 IU/ml), streptomycin (50 μg/ml) and L-Glutamine (2 mM). The Caco-2, HT-29 and 8305C cells, respectively, were grown in EMEM 20% FBS, McCoy's 5a Medium Modified 10% FBS and RPMI 20% FBS. All reagents used for maintaining tumor cells in culture were purchased from Sigma-Aldrich. The cell lines were maintained in the B5061EK/CO2 mod. Heraeus incubator (Hanau, Germany) at a temperature of 37° C. in a humid atmosphere at 5% CO2. The cells were detached from the culture plates while in the logarithmic growth phase by using a 10× trypsin-EDTA solution and finally plated again to be tested or to keep them in culture.
(§3) The concentration that reduced cell survival by 50% (IC50) compared to controls was finally calculated with GraphPad Prism (version 5.0, San Diego, CA). The simultaneous combination of Vemurafenib and ML00253764 was assessed in the 2 melanoma lines for 72 hours using the aforementioned compounds in a fixed molar ratio of 1:10. The assessment of the level of interaction (synergism, additivity or antagonism) between the compounds ML00253764 and Vemurafenib was performed with the Combination Index (CI) method, according to which CI=1 indicates an additive effect, CI>1 an antagonistic effect and CI<1 a synergistic effect.
(§4) The related IC50s were calculated at the end of the experiments.

[2] = test system: 8305C human thyroid carcinoma cell line; assay: as above; settings: 8305C cells
From the text: as §1, §2, §3, §4

[3] = test system: A-2058 human melanoma cells; assay: Apoptosis analysis by Cell Death Detection ELISA Plus; settings: A-2058 cells, 10 nM (corresponding to the IC50), 72 h
Protocol: (§5) In order to assess the apoptotic activity, the melanoma cells were plated at 2×10^5 in sterile Petri dishes. The analysis of apoptosis was performed on WM-266-4 and A-2058 cell lines after treatment with the compound ML00253764 at the experimental IC50 obtained after 72 hours. After the treatment, the cells were scraped off and recovered with their medium into blind ended tubes and counted in the Burker chamber. An aliquot containing 50,000 cells was centrifuged for 10 minutes at 800 rpm, the pellet thus obtained was lysed with an appropriate volume of lysis buffer for 30 minutes at room temperature, then again centrifuged at 200 g for 10 minutes. The supernatant was used for apoptosis analysis by ELISA assay (Cell Death detection ELISA PLUS, Roche). The ELISA apoptosis assay was performed in 96-well microplates and the absorbance reading was performed by using the Thermo labsystems Multiskan Spectrum reader (M-Medical, MI). To visualize the apoptotic process, 2×10^4 A-2058 cells were plated on slides in a 12-well plate and treated for 72 hours with the compound ML00253764 at a concentration of 10 nM. At the end of the incubation with the drug, the cells were washed with PBS, fixed and stained with TO-PRO3 iodide. The coverslips were finally mounted, and the slides viewed under a Leica TCS SP5 confocal laser scanning microscope. […]

[4] = test system: WM 266-4 human melanoma cells; assay: as above; settings: WM 266-4 cells, 35 nM (corresponding to the IC50), 72 h
Protocol: as §5

[5] = test system: A-2058 human melanoma cells; assay: Apoptosis visualised by TO-PRO3 iodide nuclear staining, confocal microscopy; settings: A-2058 cells, 10 nM, 72 h
Protocol: as §5

[6] = test system: A-2058 human melanoma cell line; assay: In vitro cytotoxicity / antiproliferative effect, cell count after 72 h; settings: A-2058 cells; for IC50: Homo sapiens, A2058, 72 h drug exposure, cell proliferation vs vehicle controls
From the text: as §1, §2, §3

[7] = test system: WM 266-4 human melanoma cell line; assay: as above; settings: for IC50: Homo sapiens, WM 266-4 cells, 72 h drug exposure, cell proliferation vs vehicle controls
From the text: as §1, §2, §3

[8] = Homo sapiens, 72 h drug exposure, cell proliferation vs vehicle controls

**Q.** With `COc1ccc(Br)cc1CCc1c(F)cccc1C1=NCCN1` [ML00253764, 2-[2-[2-(5-bromo-2-methoxyphenyl)-ethyl]-3-fluorophenyl]-4,5-dihydro-1H-imidazole] as the compound, how does the antiproliferative effect ([1]; 10 nM, 72 h) read?
**A.** The antiproliferative effect was “significant antiproliferative effect”.

**Q.** What about the IC50 [1, 8] of the same compound?
**A.** Its IC50 is 806 nM.

**Q.** And the antiproliferative effect ([2]; 10 nM, 72 h)?
**A.** Its antiproliferative effect is “significant antiproliferative effect”.

**Q.** And the IC50 [2, 8]?
**A.** The IC50 was 7670 nM.

**Q.** And the “pro-apoptotic activity (ELISA, cytosolic nucleosomes)” value [3]?
**A.** Its value is “significant pro-apoptotic activity”.

**Q.** And the “apoptotic signal (ELISA, cytosolic nucleosomes)” value [4]?
**A.** The value was “significant increase in the apoptotic signal”.

**Q.** And the “apoptosis, TO-PRO3 nuclear fluorescence” value [5]?
**A.** Its value is “increase in fluorescence with “shrunken” nuclei”.

**Q.** And the antiproliferative effect ([6]; 10 nM, 72 h)?
**A.** The antiproliferative effect was “significant antiproliferative effect”.

**Q.** And the IC50 [6]?
**A.** The IC50 was 11.1 nM.

**Q.** What about the IC50 [7] of the same compound?
**A.** Its IC50 is 33.7 nM.

**Q.** And the antiproliferative effect ([7]; WM-266-4 cells, 10 nM, 72 h)?
**A.** The antiproliferative effect was “significant antiproliferative effect”.

**Q.** With `CCCS(=O)(=O)Nc1ccc(F)c(C(=O)c2c[nH]c3ncc(-c4ccc(Cl)cc4)cc23)c1F` [Vemurafenib] as the compound, how does the IC50 [6] read?
**A.** Its IC50 is 526 nM.

**Q.** What about the IC50 [7] of the same compound?
**A.** The IC50 was 46.6 nM.
